According to US20170165286A1, “COMPOSITIONS AND METHODS FOR TREATING DIABETES AND LIVER DISEASES” (Cempra Pharmaceuticals, Inc., priority 2014, published 2017):
Entries after “also recorded” stand apart in the source; their conditions may differ.

Tested on: STAM mice
Experiment: STAM model: liver immunohistochemistry (F4/80, Gr-1, CK-18)
Type: in vivo
Conditions: for F4/80-positive area (%) a measure of macrophage density: STAM mice liver
Procedure: NASH-HCC (STAM™) Model. C57BL/6 (15-day-pregnant female) mice are obtained from Charles River Laboratories Japan (Kanagawa, Japan). Male pups are selected for the study. NASH is induced in male mice by a single subcutaneous injection of 200 μg streptozotocin (STZ, Sigma-Aldrich, USA) solution 2 days after birth, followed by feeding a HFD (57 kcal % fat, cat#: HFD32, CLEA Japan, Japan) beginning at 4 weeks of age. At 5 weeks of age, mice are divided into a control group and one or more treated group (generally 8 mice per group). Animals are sacrificed at 9 weeks of age, and biochemical, histological, and gene expression analyses are performed.
During weeks 5-9 (starting at day 35±2), test compound is administered (generally orally) at various doses diluted to 10 mL/kg and according to various dosing protocols to treatment groups (8 mice each) while a second group (8 mice) is administered vehicle only. Animals are sacrificed at 9 weeks.
For immunohistochemistry (a measure of inflammation), sections are cut from frozen liver tissues embedded in Tissue-Tek O.C.T. compound and fixed in acetone. Endogenous peroxidase activity is blocked using 0.03% H2O2 for 5 minutes, followed by incubation with Block Ace (Dainippon Sumitomo Pharma, Japan) for 10 minutes. The sections were incubated with a 200-fold dilution of anti-F4/80 antibody (BMA Biomedicals, Switzerland), a 50-fold dilution of anti-CK-18 antibody (LifeSpan BioSciences, USA) or anti-Gr-1 antibody (culture supernatant) over night at 4° C. F4/80 is a marker for macrophage and Kupffer cells in the liver; CK-18 antibody measures the cytoskeleton in damaged hepatocytes; and anti-Gr-1 antibody measures the neutrophil response. After incubation with secondary antibody (HRP-Goat anti-rat antibody, Invitrogen, USA), enzyme-substrate reactions are performed using 3, 3′-diaminobenzidine/H2O2 solution (Nichirei, Japan).
For quantitative analysis of fibrosis area, bright field images of Sirius red-stained sections are captured around the central vein using a digital camera (DFC280; Leica, Germany) at 200-fold magnification, and the positive areas in 5 fields/section are measured using ImageJ software (National Institute of Health, USA). For quantitative analysis of inflammation area, bright field images of F4/80-immunostained sections are captured around the central vein using a digital camera (DFC280; Leica, Germany) at 200-fold magnification, and the positive areas in 5 fields/section are measured using ImageJ software (National Institute of Health, USA).
Illustrative dose response test groups. Group 1-Normal. Eight normal mice are fed with a normal diet ad libitum without any treatment until 9 weeks of age. Group 2-Vehicle. Eight NASH mice are orally administered vehicle (0.5% w/v methylcellulose+0.2% Tween®80) in a volume of 10 mL/kg twice daily from 5 to 9 week of age. Group 3-solithromycin 5 mg/kg. Eight NASH mice are orally administered vehicle supplemented with solithromycin at a dose of 5 mg/kg in the morning and the vehicle in the evening (5 mg/kg/day) from 5 to 9 weeks of age. Group 4-solithromycin 10 mg/kg. Eight NASH mice are orally administered vehicle supplemented with solithromycin at a dose of 10 mg/kg twice daily (20 mg/kg/day) from 5 to 9 weeks of age. Group 5-solithromycin 25 mg/kg. Eight NASH mice are orally administered vehicle supplemented with solithromycin at a dose of 25 mg/kg twice daily (50 mg/kg/day) from 5 to 9 weeks of age. Group 6-solithromycin 50 mg/kg. Eight NASH mice are orally administered vehicle supplemented with solithromycin at a dose of 50 mg/kg once daily (50 mg/kg/day) from 5 to 9 weeks of age.

CC[C@H]1OC(=O)[C@@](C)(F)C(=O)[C@H](C)[C@@H](O[C@@H]2O[C@H](C)C[C@H](N(C)C)[C@H]2O)[C@](C)(OC)C[C@@H](C)C(=O)[C@H](C)[C@H]2N(CCCCn3cc(-c4cccc(N)c4)nn3)C(=O)O[C@]12C [solithromycin]
F4/80-positive area (%) a measure of macrophage density (5 mg/kg): 10.83 ± 1.38%
F4/80-positive area (%) a measure of macrophage density (10 mg/kg): 9.33 ± 1.31%
F4/80-positive area (%) a measure of macrophage density (25 mg/kg): 10.63 ± 2.11%
Area of F4/80-positive macrophages compared to vehicle group (STAM mice, Groups 3-6): no significant differences
Gr-1 positive cells (neutrophil infiltration) in liver compared to vehicle group (STAM mice, all doses): decreased; also recorded: reduced
CK-18 immunostaining compared to vehicle group (STAM mice, any doses): no obvious changes
